Data from ChEMBL document CHEMBL1201862, “PubChem BioAssay data set” (2004).
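Assay format: 96-well plates, 48-hour exposure. At the GI50, growth is halved.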 Activity calls are given as the source filed them. No stated cut-off is given here; in the data, active = GI50 up to about 1.1 µM and inactive = higher.

Legend:
Test in all cases: NCI-60 cell line screen, 48 h
SK-MEL-2 = system: SK-MEL-2
786-0 = system: 786-0
HOP-62 = system: HOP-62
MOLT-4 = system: MOLT-4
UO-31 = system: UO-31
MDA-MB-435 = system: MDA-MB-435
Hs-578T = system: Hs-578T
NCI-H460 = system: NCI-H460
M14 = system: M14
SW-620 = system: SW-620
SF-295 = system: SF-295
SR = system: SR
SNB-75 = system: SNB-75
HCC 2998 = system: HCC 2998
NCI-H226 = system: NCI-H226
MCF7 = system: MCF7
HT-29 = system: HT-29
MDA-N = system: MDA-N
CAKI-1 = system: CAKI-1

Row | SMILES | GI50 (SK-MEL-2) | GI50 (786-0) | GI50 (HOP-62) | GI50 (MOLT-4) | GI50 (UO-31) | GI50 (MDA-MB-435) | GI50 (Hs-578T) | GI50 (NCI-H460) | GI50 (M14) | GI50 (SW-620) | GI50 (SF-295) | GI50 (SR) | GI50 (SNB-75) | GI50 (HCC 2998) | GI50 (NCI-H226) | GI50 (MCF7) | GI50 (HT-29) | GI50 (MDA-N) | GI50 (CAKI-1)
1 | O=C1c2cc([N+](=O)[O-])cnc2S(=O)(=O)N1c1ccc(Oc2ccccc2)cc1 | > 100 µM (inactive) | > 100 µM (inactive) | > 100 µM (inactive) | 33 µM (inactive) | > 100 µM (inactive) | > 100 µM (inactive) | > 100 µM (inactive) | > 100 µM (inactive) | > 100 µM (inactive) | > 100 µM (inactive) | > 100 µM (inactive) | 57 µM (inactive) | > 100 µM (inactive) | > 100 µM (inactive) | > 100 µM (inactive) | > 100 µM (inactive) | – | – | –
2 | O=C(NCCN1C(=O)CN=C(c2ccc(Cl)cc2)c2cc(Cl)ccc21)OCc1ccccc1 | 18.1 µM (inactive) | 14.7 µM (inactive) | 19.8 µM (inactive) | 0.255 µM (active) | 10.9 µM (inactive) | 15.1 µM (inactive) | 17.4 µM (inactive) | 13.4 µM (inactive) | 16.4 µM (inactive) | 13.6 µM (inactive) | 13.7 µM (inactive) | 9.48 µM (inactive) | 18.1 µM (inactive) | 14.3 µM (inactive) | 15.6 µM (inactive) | – | 11.8 µM (inactive) | 16.5 µM (inactive) | 14.2 µM (inactive)
3 | O=c1n(-c2ccccc2)c(=O)n2c(-c3ccccc3)c(-c3ccccc3)n12 | > 100 µM (inactive) | 80.2 µM (inactive) | > 100 µM (inactive) | 37.4 µM (inactive) | 66.4 µM (inactive) | – | > 100 µM (inactive) | 91 µM (inactive) | 52.1 µM (inactive) | > 100 µM (inactive) | 84.1 µM (inactive) | 27 µM (inactive) | 76.9 µM (inactive) | 77.8 µM (inactive) | > 100 µM (inactive) | > 100 µM (inactive) | 70.1 µM (inactive) | > 100 µM (inactive) | > 100 µM (inactive)
4 | COc1cc2c(cc1OCCN1CCN(CCOc3cc4c(cc3OC)C(=O)N3CCC[C@H]3C=N4)CC1)N=C[C@@H]1CCCN1C2=O | 26 µM (inactive) | 17.8 µM (inactive) | 30.5 µM (inactive) | 2.06 µM (inactive) | 35.8 µM (inactive) | 20.8 µM (inactive) | 41.6 µM (inactive) | 13.5 µM (inactive) | 25.1 µM (inactive) | 19.2 µM (inactive) | 8.83 µM (inactive) | 0.362 µM (active) | > 76.9 µM (inactive) | – | 19.4 µM (inactive) | 18.2 µM (inactive) | 36 µM (inactive) | – | 14 µM (inactive)
5 | O=c1nc(Oc2c(F)c(F)c(F)c(F)c2F)ccn1C1OC(CO)C(O)C1O (stereo not drawn) | > 100 µM (inactive) | > 100 µM (inactive) | > 100 µM (inactive) | 43.9 µM (inactive) | > 100 µM (inactive) | > 100 µM (inactive) | > 100 µM (inactive) | – | > 100 µM (inactive) | > 100 µM (inactive) | > 100 µM (inactive) | 58.1 µM (inactive) | > 100 µM (inactive) | > 100 µM (inactive) | – | > 100 µM (inactive) | > 100 µM (inactive) | – | > 100 µM (inactive)
6 | CCOC(=O)[C@@]1(C)CC(O)C(=O)N1C (stereo partly drawn) | > 100 µM (inactive) | > 100 µM (inactive) | > 100 µM (inactive) | > 100 µM (inactive) | > 100 µM (inactive) | > 100 µM (inactive) | > 100 µM (inactive) | – | > 100 µM (inactive) | > 100 µM (inactive) | > 100 µM (inactive) | > 100 µM (inactive) | – | > 100 µM (inactive) | > 100 µM (inactive) | > 100 µM (inactive) | > 100 µM (inactive) | – | > 100 µM (inactive)
7 | COc1ccc2oc(=N)c(C(N)=O)cc2c1 | 23.6 µM (inactive) | 53.5 µM (inactive) | 55.2 µM (inactive) | 65.9 µM (inactive) | – | 49.4 µM (inactive) | 18.2 µM (inactive) | 39.2 µM (inactive) | 87.3 µM (inactive) | 94.8 µM (inactive) | – | 38.5 µM (inactive) | 30.1 µM (inactive) | 32.7 µM (inactive) | 46.1 µM (inactive) | – | 56.4 µM (inactive) | 57.1 µM (inactive) | 50.6 µM (inactive)
8 | Clc1ccc(OCc2nnc(CCCCCCCCc3nnc(COc4ccc(Cl)cc4)o3)o2)cc1 | > 100 µM (inactive) | 31.8 µM (inactive) | – | 14.8 µM (inactive) | > 100 µM (inactive) | > 100 µM (inactive) | – | > 100 µM (inactive) | 89.7 µM (inactive) | > 100 µM (inactive) | > 100 µM (inactive) | – | 68.2 µM (inactive) | > 100 µM (inactive) | > 100 µM (inactive) | 28.2 µM (inactive) | > 100 µM (inactive) | > 100 µM (inactive) | 39.7 µM (inactive)
9 | CC(C)(C)OC(=O)N1CCC[C@H]1CSC[C@@H]1CCCN1C(=O)OC(C)(C)C | 18.3 µM (inactive) | 38.8 µM (inactive) | 41.5 µM (inactive) | 16.7 µM (inactive) | 26.2 µM (inactive) | 20.7 µM (inactive) | 27 µM (inactive) | 34.3 µM (inactive) | 18.6 µM (inactive) | 30.3 µM (inactive) | 30.8 µM (inactive) | – | 23.9 µM (inactive) | 39.8 µM (inactive) | – | 28.6 µM (inactive) | 17.8 µM (inactive) | 29.4 µM (inactive) | 32.4 µM (inactive)
10 | C[Si](C)(OCCS(=O)(=O)O)OC(=C1S(=O)(=O)OCCOS1(=O)=O)c1cccc2ccccc12 | > 100 µM (inactive) | > 100 µM (inactive) | > 100 µM (inactive) | > 100 µM (inactive) | > 100 µM (inactive) | > 100 µM (inactive) | – | > 100 µM (inactive) | > 100 µM (inactive) | > 100 µM (inactive) | > 100 µM (inactive) | > 100 µM (inactive) | > 100 µM (inactive) | 90.6 µM (inactive) | > 100 µM (inactive) | 67.6 µM (inactive) | > 100 µM (inactive) | > 100 µM (inactive) | > 100 µM (inactive)
11 | O=c1[nH]nc(Nc2ccccc2)c2nnn(C3CCCCC3)c12 | > 100 µM (inactive) | > 100 µM (inactive) | > 100 µM (inactive) | > 100 µM (inactive) | > 100 µM (inactive) | > 100 µM (inactive) | – | > 100 µM (inactive) | > 100 µM (inactive) | – | > 100 µM (inactive) | > 100 µM (inactive) | – | > 100 µM (inactive) | – | > 100 µM (inactive) | > 100 µM (inactive) | > 100 µM (inactive) | > 100 µM (inactive)
12 | COc1ccc2ccnc(Cc3ccc(OCc4ccccc4)c(OC)c3)c2c1 | 20.7 µM (inactive) | 19.2 µM (inactive) | 15.8 µM (inactive) | 17.6 µM (inactive) | 6 µM (inactive) | – | – | 18.9 µM (inactive) | 18 µM (inactive) | 33.5 µM (inactive) | 26.4 µM (inactive) | – | 27 µM (inactive) | 19.3 µM (inactive) | – | – | 27.8 µM (inactive) | – | 29.2 µM (inactive)
13 | CC(C)=CCC[C@@H](C)c1c2nc3ccccc3sc-2c(C)c(=O)c1O | 9.71 µM (inactive) | 4.9 µM (inactive) | 4.36 µM (inactive) | 2.32 µM (inactive) | 3.55 µM (inactive) | 10.6 µM (inactive) | 9.66 µM (inactive) | 2.22 µM (inactive) | 4.75 µM (inactive) | 4.86 µM (inactive) | 3.78 µM (inactive) | 2.23 µM (inactive) | 5.53 µM (inactive) | 9.66 µM (inactive) | 3.74 µM (inactive) | 8.3 µM (inactive) | 2.79 µM (inactive) | – | 2.82 µM (inactive)
14 | C=Cc1ccc(C)[n+](C[Si](C)(C)O[Si](C)(C)C)c1 | > 100 µM (inactive) | > 100 µM (inactive) | > 100 µM (inactive) | > 100 µM (inactive) | > 100 µM (inactive) | – | – | – | > 100 µM (inactive) | > 100 µM (inactive) | > 100 µM (inactive) | > 100 µM (inactive) | > 100 µM (inactive) | > 100 µM (inactive) | > 100 µM (inactive) | – | > 100 µM (inactive) | – | > 100 µM (inactive)
15 | O=C(CN1CCOCC1)Nc1ccc2c(c1)C1Oc3ccccc3CC1CO2 (stereo not drawn) | > 100 µM (inactive) | > 100 µM (inactive) | > 100 µM (inactive) | 88.1 µM (inactive) | > 100 µM (inactive) | > 100 µM (inactive) | – | – | > 100 µM (inactive) | > 100 µM (inactive) | > 100 µM (inactive) | > 100 µM (inactive) | – | > 100 µM (inactive) | > 100 µM (inactive) | > 100 µM (inactive) | > 100 µM (inactive) | > 100 µM (inactive) | > 100 µM (inactive)
16 | C(=C\c1ccccc1)/C=N/c1ccc2c(c1)Cc1ccccc1-2 | 57.1 µM (inactive) | 54.2 µM (inactive) | > 100 µM (inactive) | 31 µM (inactive) | > 100 µM (inactive) | 58.1 µM (inactive) | 50.8 µM (inactive) | 58.1 µM (inactive) | 62.2 µM (inactive) | 69 µM (inactive) | > 100 µM (inactive) | 24 µM (inactive) | 38.6 µM (inactive) | – | > 100 µM (inactive) | – | > 100 µM (inactive) | 44 µM (inactive) | > 100 µM (inactive)
17 | COc1ccc(C(=O)N(C(=S)OCCOc2ccccc2)c2ccccc2)cc1 | 22.9 µM (inactive) | 47.9 µM (inactive) | 71.3 µM (inactive) | 19.7 µM (inactive) | 0.0457 µM (active) | 31.7 µM (inactive) | 65.2 µM (inactive) | 34.1 µM (inactive) | 43.3 µM (inactive) | 50 µM (inactive) | 29.2 µM (inactive) | – | 1.63 µM (inactive) | 34.4 µM (inactive) | – | 42 µM (inactive) | 40.4 µM (inactive) | 35.1 µM (inactive) | 47 µM (inactive)
